The record followed here is PubChem BioAssay AID1259407 (Chemical Carcinogenesis Research Information System (CCRIS), 2018).

In this series the test system is CCRIS mutagenicity, Ames/micronucleus/aberration tests. The series can be described thus: CCRIS mutagenicity studies.

Active and inactive are the calls of the source. How the calls were made is not given here.

As for `C/C=C1/C[C@@H](C)[C@](O)(CO)C(=O)OCC2=CCN3CC[C@@H](OC1=O)[C@@H]23`, the mutagenic call (Test System: AMES SALMONELLA TYPHIMURIUM, Strain/Indicator: TA97A, Metabolic Activation: RAT, LIVER, S-9, SODIUM PHENOBARBITAL AND BETA-NAPHTHOFLAVONE, Method: PREINCUBATION) was “inactive; negative”; the mutagenic call (Test System: AMES SALMONELLA TYPHIMURIUM, Strain/Indicator: TA97A, Metabolic Activation: RAT, LIVER, S-9, SODIUM PHENOBARBITAL AND BETA-NAPHTHOFLAVONE, Method: STANDARD PLATE) is “inactive; negative”; the mutagenic call (Test System: AMES SALMONELLA TYPHIMURIUM, Strain/Indicator: TA98, Metabolic Activation: RAT, LIVER, S-9, SODIUM PHENOBARBITAL AND BETA-NAPHTHOFLAVONE, Method: PREINCUBATION) is “inactive; negative”; the mutagenic call (Test System: AMES SALMONELLA TYPHIMURIUM, Strain/Indicator: TA98, Metabolic Activation: RAT, LIVER, S-9, SODIUM PHENOBARBITAL AND BETA-NAPHTHOFLAVONE, Method: STANDARD PLATE) was “inactive; negative”; the mutagenic call (Test System: AMES SALMONELLA TYPHIMURIUM, Strain/Indicator: TA100, Metabolic Activation: RAT, LIVER, S-9, SODIUM PHENOBARBITAL AND BETA-NAPHTHOFLAVONE, Method: PREINCUBATION) was “inactive; negative”; the mutagenic call (Test System: AMES SALMONELLA TYPHIMURIUM, Strain/Indicator: TA100, Metabolic Activation: RAT, LIVER, S-9, SODIUM PHENOBARBITAL AND BETA-NAPHTHOFLAVONE, Method: STANDARD PLATE) is “inactive; negative”. Also, the mutagenic call by setting is: (Test System: AMES SALMONELLA TYPHIMURIUM, Strain/Indicator: TA1535, Metabolic Activation: RAT, LIVER, S-9, SODIUM PHENOBARBITAL AND BETA-NAPHTHOFLAVONE, Method: PREINCUBATION) “inactive; negative”; (Test System: AMES SALMONELLA TYPHIMURIUM, Strain/Indicator: TA1535, Metabolic Activation: RAT, LIVER, S-9, SODIUM PHENOBARBITAL AND BETA-NAPHTHOFLAVONE, Method: STANDARD PLATE) “inactive; negative”; (Test System: AMES SALMONELLA TYPHIMURIUM, Strain/Indicator: TA1538, Metabolic Activation: RAT, LIVER, S-9, SODIUM PHENOBARBITAL AND BETA-NAPHTHOFLAVONE, Method: PREINCUBATION) “inactive; negative”; (Test System: AMES SALMONELLA TYPHIMURIUM, Strain/Indicator: TA1538, Metabolic Activation: RAT, LIVER, S-9, SODIUM PHENOBARBITAL AND BETA-NAPHTHOFLAVONE, Method: STANDARD PLATE) “inactive; negative”.

`Cc1cc(NS(=O)(=O)c2ccc(N)cc2)no1`: the mutagenic call (End Point: AMES SALMONELLA TYPHIMURIUM, Test System: TA98, Metabolic Activation: NONE, Method: STANDARD PLATE) was “active; positive” and the mutagenic call (End Point: AMES SALMONELLA TYPHIMURIUM, Test System: TA100, Metabolic Activation: NONE, Method: STANDARD PLATE) is “active; positive”.

`C=CC(O)CO` (stereo not given): the mutagenic call reads like this: (Test System: Mouse splenic T lymphocytes in vivo, Strain/Indicator: B6C3F1 females (HPRT)/6-Thioguanine, Metabolic Activation: None, Method: Inhalation at 0, 6, 18, 36 ppm 6 hr/day for 4 wks (sacrifice 2-8 wks post exposure)) “active; positive (especially at 5.5-6 wk after last exposure)”; (Test System: Mouse splenic T lymphocytes in vivo, Strain/Indicator: B6C3F1 males (HPRT)/6-Thioguanine, Metabolic Activation: None, Method: Inhalation at 0, 6, 18, 36 ppm 6 hr/day for 4 wks (sacrifice 2-8 wks post exposure)) “active; positive (especially at 5.5-6 wk after last exposure)”; (Test System: Rat splenic T lymphocytes in vivo, Strain/Indicator: F344 females (HPRT)/6-Thioguanine, Metabolic Activation: None, Method: Inhalation at 0, 36 ppm 6 hr/day for 4 wks (sacrifice 2-8 wks post exposure)) “active; positive (at 5-6 wks)”.
